According to PubChem BioAssay (NCI):
“And” between values parts separate entries of the source, which are not always exact repeats. Equal values may be shown once.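 Where inhibition never reached the appropriate level, the endpoint shown equals the highest concentration tested. Otherwise, values were interpolated linearly from a five-concentration, 48-hour dose response in 96-well plates. Abbreviation: GI50, concentration required for 50% inhibition of growth. TGI is the concentration that stops growth completely.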

Key:
Assay in all cases: NCI-60 cell line screen, 48 h
HOP-62 NSCLC = system: HOP-62 NSCLC
HOP-92 NSCLC = system: HOP-92 NSCLC
MOLT-4 leukemia = system: MOLT-4 leukemia
NCI-H460 lung = system: NCI-H460 lung
NCI-H522 lung = system: NCI-H522 lung
RPMI-8226 leukemia = system: RPMI-8226 leukemia
SNB-75 CNS = system: SNB-75 CNS
OVCAR-5 ovarian = system: OVCAR-5 ovarian
U251 CNS = system: U251 CNS
MDA-N = system: MDA-N

| Compound | TGI (HOP-62 NSCLC) [µM] | TGI (HOP-92 NSCLC) [µM] | TGI (MOLT-4 leukemia) [µM] | TGI (NCI-H460 lung) [µM] | TGI (NCI-H522 lung) [µM] | TGI (RPMI-8226 leukemia) [µM] | TGI (SNB-75 CNS) [µM] | TGI (OVCAR-5 ovarian) [µM] | TGI (U251 CNS) [µM] | TGI (MDA-N) [µM] | GI50 (MOLT-4 leukemia) [µM] | GI50 (SNB-75 CNS) |
| --- | --- | --- | --- | --- | --- | --- | --- | --- | --- | --- | --- | --- |
| O=C1Nc2cc([N+](=O)[O-])c(Br)cc2C1=O | 75.1 | 43.1 | 43 | > 100 | 30.3 | 43.3 | 52 |  |  |  |  |  |
| COc1ccc2c(c1)OCCc1cn[nH]c1-2 | > 100 | 61.6 | 70.4 | > 100 | > 100 |  | > 100 | > 100 | > 100 |  |  |  |
| CC(=O)NNc1nc(C)c(C(=O)NNC(=O)C(=O)Nc2cccc(C(C)=O)c2)s1 | 68.2 | 90 | > 100 | 33.2 | 28.9 | > 100 | 38.9 | > 100 | 90.4 |  |  |  |
| Cc1ccc(Sc2ccccc2[N+](=O)[O-])cc1 | > 100 | 59.2 | 81.4 | > 100 |  | > 100 | 40.6 | > 100 | 61.7 |  |  |  |
| COc1ccc2nc3c(c(NCCCN(C)C)c2c1)CCCC3 | 30.9 | 21.1 | 14.2 | 24.3 | 31.3 | 27.2 | 26.9 | 35.6 | 30.1 |  |  |  |
| C[S+](C)CC1OC(n2cnc3c(N)ncnc32)C(O)C1O (centres undefined) | > 225 | > 225 | > 225 | > 225 | > 225 | > 225 | > 225 | > 225 | > 225 |  |  |  |
| CCOC(=O)c1cc2c(OCc3ccccc3)c(OC)cc3c2c(n1)N(c1ccc(OC)cc1)C(C)C3 (centres undefined) | > 50 | 42.9 | > 50 | > 50 | > 50 | > 50 | > 50 | > 50 | > 50 |  |  |  |
| CC1(C)C2CCC3(OCCO3)C1C(O)C2 (centres undefined) | > 100 | > 100 | > 100 | > 100 | > 100 | > 100 | > 100 | > 100 | > 100 |  |  |  |
| CN1N=C(c2ccncc2)OC1c1cccc(C(F)(F)F)c1 (centres undefined) | > 100 |  | > 100 | > 100 | > 100 | > 100 | 87.3 | > 100 | > 100 | > 100 |  |  |
| O=C(O)CC[P+](c1ccccc1)(c1ccccc1)c1ccccc1 | > 100 |  | > 100 |  | > 100 | 19.9 | > 100 | > 100 | > 100 | > 100 |  |  |
| O=C1CC(C(CC(=O)c2ccccc2)c2ccccc2)C(=O)c2ccccc2N1 (centres undefined) | > 100 |  | 61.2 | > 100 |  | > 100 | > 100 | > 100 | > 100 | > 100 |  |  |
| COc1cccc(/C(Cl)=C(\C=O)c2cccc(OC)c2)c1 | 30.1 | 36 | 78.3 | 26.4 | 11.4 | 45.1 | 40.5 | 38 | 22.2 |  |  |  |
| C=C[C@@]1(O)CCCC[C@@H]1CC(Sc1ccccc1)Sc1ccccc1 | 29.5 |  | > 100 | 26.2 | 26.8 | 90.2 | 27.8 | 32.9 | 31.9 | 44.8 |  |  |
| CCOC(=O)NNC(=O)NCc1ccccc1CNC(=O)NNC(=O)OCC |  |  | > 100 | > 100 | > 100 | > 100 | > 100 | > 100 | > 100 | > 100 |  |  |
| CCOC(=O)CCC1(C(=O)OCC)CCCC1=O (centres undefined) | > 100 | > 100 | > 100 | > 100 | > 100 | 77.4 | > 100 | > 100 | > 100 |  |  |  |
| Cc1ccc(N(O)C(C)(C)C)cc1 | > 100 | > 100 | > 100 | > 100 | > 100 | > 100 | > 100 | > 100 | > 100 |  |  |  |
| COC(=O)C1=C(O)C(C(=O)OC)[C@]2(O)[C@@H](C(=O)OC)[C@H]1C[C@@H](c1ccccc1)[C@@H]2C(=O)OC (some centres undefined) | 41.7 |  | 55.6 | 37.8 | 20.6 | 31.7 | > 100 | 30.9 | 30.7 | 19.1 |  |  |
| Cc1cccc2nc3c(=O)[nH]c(=O)nc-3n(C)c12 | > 100 |  | > 100 | > 100 | 87.4 | 95.4 | > 100 | > 100 | > 100 | > 100 |  |  |
| Cc1cn(C2CC(CCCO)C(CO)O2)c(=O)[nH]c1=O (centres undefined) | > 100 |  | > 100 | > 100 | > 100 | > 100 | > 100 | > 100 | > 100 |  | > 100 | > 100 µM and 30.5 µM |
| Cc1ccnc2nc(N)ccc12 |  |  | > 100 | > 100 | > 100 | > 100 | > 100 | > 100 | > 100 | > 100 |  |  |
| CC1(C)C(CCO)CC1n1ccc(=O)[nH]c1=O (centres undefined) | > 100 | > 100 |  |  |  |  | > 100 | > 100 | > 100 | > 100 |  |  |
| C[N+](C)(C)C=Nc1cccc2c1CCCC2 | > 100 | > 100 | > 100 |  |  | > 100 | > 100 | > 100 | > 100 | > 100 |  |  |
| CC(C)OP(=O)(OC(C)C)C1=NN(c2ccc([N+](=O)[O-])cc2)C(P(=O)(OC(C)C)OC(C)C)=NN1c1ccc([N+](=O)[O-])cc1 | > 100 | > 100 | > 100 | > 100 | > 100 | > 100 |  | > 100 | > 100 |  |  |  |
| [O-][n+]1c(CN2CCCCC2)nc2cccc3c2c1-c1ccccc1-3 | 48.6 | 85.6 | > 100 | 46 |  | > 100 | 50.2 | 50.5 | > 100 | 58.4 |  |  |
